In publication PMC6802847, “Mutual role of ecto-5'-nucleotidase/CD73 and concentrative nucleoside transporter 3 in the intestinal uptake of dAMP” (PLoS ONE, 2019):

Tests used:
[1] = target: T1, ecto-5'-nucleotidase/CD73 (Homo sapiens, UniProt P21589); assay: phosphate release from […] dAMP in COS-7 cells expressing CD73
T1 construct: gene NT5E
T1 sequence (P21589 27-549): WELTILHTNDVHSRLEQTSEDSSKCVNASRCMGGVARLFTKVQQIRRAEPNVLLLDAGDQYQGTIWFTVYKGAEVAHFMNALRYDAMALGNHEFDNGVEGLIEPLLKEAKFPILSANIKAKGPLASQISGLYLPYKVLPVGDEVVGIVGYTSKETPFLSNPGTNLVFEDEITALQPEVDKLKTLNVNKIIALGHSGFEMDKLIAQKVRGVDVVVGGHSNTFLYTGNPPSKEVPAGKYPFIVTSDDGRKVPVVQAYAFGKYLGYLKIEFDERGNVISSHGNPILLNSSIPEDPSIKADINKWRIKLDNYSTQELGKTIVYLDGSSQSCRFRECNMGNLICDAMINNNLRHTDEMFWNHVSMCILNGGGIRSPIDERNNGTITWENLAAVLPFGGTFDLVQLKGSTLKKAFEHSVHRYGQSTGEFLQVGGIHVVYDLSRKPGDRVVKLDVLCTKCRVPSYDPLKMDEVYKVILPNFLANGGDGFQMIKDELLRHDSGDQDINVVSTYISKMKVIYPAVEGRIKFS

[2] = target: T2, concentrative nucleoside transporter 3 (CNT3) (Homo sapiens, UniProt Q9HAS3); assay: radiolabelled uptake ([…]) in COS-7 cells transiently expressing CNT3 vs empty vector; type: cell-based
T2 construct: gene SLC28A3
T2 sequence (Q9HAS3 1-691): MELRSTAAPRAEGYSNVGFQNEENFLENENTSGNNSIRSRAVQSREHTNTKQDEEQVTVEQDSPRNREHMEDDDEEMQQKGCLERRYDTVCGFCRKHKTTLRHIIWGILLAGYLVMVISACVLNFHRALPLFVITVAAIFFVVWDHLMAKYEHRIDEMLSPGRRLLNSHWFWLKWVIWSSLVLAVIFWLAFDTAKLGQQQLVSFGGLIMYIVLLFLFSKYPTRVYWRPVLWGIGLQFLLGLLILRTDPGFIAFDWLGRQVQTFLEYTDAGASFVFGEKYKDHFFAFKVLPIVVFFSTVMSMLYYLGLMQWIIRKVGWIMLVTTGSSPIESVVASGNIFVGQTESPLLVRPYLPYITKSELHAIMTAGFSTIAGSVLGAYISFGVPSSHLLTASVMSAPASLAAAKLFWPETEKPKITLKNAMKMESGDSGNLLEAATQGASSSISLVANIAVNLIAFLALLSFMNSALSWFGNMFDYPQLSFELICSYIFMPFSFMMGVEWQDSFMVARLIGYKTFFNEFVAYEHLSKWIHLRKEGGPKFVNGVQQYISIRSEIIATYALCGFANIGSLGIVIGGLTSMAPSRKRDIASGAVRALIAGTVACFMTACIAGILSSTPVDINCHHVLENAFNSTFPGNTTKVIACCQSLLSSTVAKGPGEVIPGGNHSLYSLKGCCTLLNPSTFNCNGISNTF

[3] = target: T2, concentrative nucleoside transporter 3 (CNT3); assay: radiolabelled uptake ([…]) in COS-7 cells transiently expressing CNT3 vs mock; type: cell-based
[4] = substrate: Nc1ncnc2c1ncn2[C@H]1C[C@H](O)[C@@H](COP(=O)(O)O)O1; assay: cells, lysate or membranes; settings: Na+
[5] = substrate: Nc1ncnc2c1ncn2C1CC(O)C(CO)O1; assay: cells, lysate or membranes; settings: Na+

`Nc1ncnc2c1ncn2[C@H]1C[C@H](O)[C@@H](COP(=O)(O)O)O1` [2'-deoxyadenosine 5'-monophosphate] was tested, and the “phosphate release from 10 μM dAMP in COS-7 cells expressing CD73” value [1] was “the phosphate release from dAMP was significantly increased by the introduction of CD73 into COS-7 cells”.

With `Nc1ncnc2c1ncn2[C@@H]1O[C@H](COP(=O)(O)O)[C@@H](O)[C@H]1O` [Adenosine 5'-monophosphate] the “radiolabelled uptake (10 nM) in COS-7 cells transiently expressing CNT3 vs empty” value [2] was “enhanced cellular uptake of [^3H]AMP with the introduction of CNT3 alone was greater than that of [^3H]dAMP”.

`Cc1cn([C@H]2C[C@H](O)[C@@H](CO)O2)c(=O)[nH]c1=O` [thymidine] was tested, and the “radiolabelled uptake (10 nM) in COS-7 cells transiently expressing CNT3 vs mock” value [3] was “Transfection of CNT3 cDNA into COS-7 cells resulted in an increased uptake of [^3H]thymidine, a typical substrate of CNT3”.

B1: concentrative nucleoside transporter 3 (CNT3) (Homo sapiens) (protein)
chain: T2 sequence (Q9HAS3 1-691)
For B1, the Km [4] was 59.6 ± 3.8 µM and the Km [5] was 56.3 ± 7.0 µM.
